Source: EP4745135A1 (Gluetacs Therapeutics (Shanghai) Co., Ltd., priority 2023, dated 2025)

Columns and labels:
IKZF1 = biological target: T1, IKZF1 (Homo sapiens, UniProt Q13422+Q96SW2); test: Western blot, degradation of substrate protein in hPBMCs; format: cell-based
T1 construct: effects of the compounds of the present disclosure on the expression of target proteins in cells; endogenous in cells; host or cells: human PBMCs (Milecell Biotechnologies)

CK1α = biological target: T2, CK1α (Homo sapiens, UniProt P48729+Q96SW2); test: as above; format: cell-based
T2 construct: effects of the compounds of the present disclosure on the expression of target proteins in cells; endogenous in cells; host or cells: human PBMCs (Milecell Biotechnologies)
T2 sequence (P48729 whole entry): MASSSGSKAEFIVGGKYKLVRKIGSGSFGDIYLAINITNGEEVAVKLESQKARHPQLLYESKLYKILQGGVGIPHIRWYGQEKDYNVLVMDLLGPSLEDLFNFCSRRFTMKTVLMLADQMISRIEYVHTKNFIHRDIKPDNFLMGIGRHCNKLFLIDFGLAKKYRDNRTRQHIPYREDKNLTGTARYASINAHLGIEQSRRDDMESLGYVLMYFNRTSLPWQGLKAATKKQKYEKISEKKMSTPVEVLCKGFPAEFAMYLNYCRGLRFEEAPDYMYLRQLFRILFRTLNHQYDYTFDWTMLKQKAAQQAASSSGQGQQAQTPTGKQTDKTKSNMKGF
T2 sequence (Q96SW2 whole entry): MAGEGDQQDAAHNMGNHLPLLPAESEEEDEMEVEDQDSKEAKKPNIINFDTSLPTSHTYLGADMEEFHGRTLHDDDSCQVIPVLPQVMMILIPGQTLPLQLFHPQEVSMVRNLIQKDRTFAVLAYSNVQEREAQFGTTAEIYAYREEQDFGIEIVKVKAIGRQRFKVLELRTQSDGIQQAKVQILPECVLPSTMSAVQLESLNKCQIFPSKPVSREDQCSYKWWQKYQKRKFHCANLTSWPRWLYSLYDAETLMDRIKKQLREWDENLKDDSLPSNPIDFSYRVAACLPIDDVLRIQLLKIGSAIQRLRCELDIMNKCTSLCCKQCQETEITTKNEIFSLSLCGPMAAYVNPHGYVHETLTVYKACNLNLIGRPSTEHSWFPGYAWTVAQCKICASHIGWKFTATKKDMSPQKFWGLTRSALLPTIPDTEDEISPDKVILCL
T2 sequence (Q16531 whole entry partner): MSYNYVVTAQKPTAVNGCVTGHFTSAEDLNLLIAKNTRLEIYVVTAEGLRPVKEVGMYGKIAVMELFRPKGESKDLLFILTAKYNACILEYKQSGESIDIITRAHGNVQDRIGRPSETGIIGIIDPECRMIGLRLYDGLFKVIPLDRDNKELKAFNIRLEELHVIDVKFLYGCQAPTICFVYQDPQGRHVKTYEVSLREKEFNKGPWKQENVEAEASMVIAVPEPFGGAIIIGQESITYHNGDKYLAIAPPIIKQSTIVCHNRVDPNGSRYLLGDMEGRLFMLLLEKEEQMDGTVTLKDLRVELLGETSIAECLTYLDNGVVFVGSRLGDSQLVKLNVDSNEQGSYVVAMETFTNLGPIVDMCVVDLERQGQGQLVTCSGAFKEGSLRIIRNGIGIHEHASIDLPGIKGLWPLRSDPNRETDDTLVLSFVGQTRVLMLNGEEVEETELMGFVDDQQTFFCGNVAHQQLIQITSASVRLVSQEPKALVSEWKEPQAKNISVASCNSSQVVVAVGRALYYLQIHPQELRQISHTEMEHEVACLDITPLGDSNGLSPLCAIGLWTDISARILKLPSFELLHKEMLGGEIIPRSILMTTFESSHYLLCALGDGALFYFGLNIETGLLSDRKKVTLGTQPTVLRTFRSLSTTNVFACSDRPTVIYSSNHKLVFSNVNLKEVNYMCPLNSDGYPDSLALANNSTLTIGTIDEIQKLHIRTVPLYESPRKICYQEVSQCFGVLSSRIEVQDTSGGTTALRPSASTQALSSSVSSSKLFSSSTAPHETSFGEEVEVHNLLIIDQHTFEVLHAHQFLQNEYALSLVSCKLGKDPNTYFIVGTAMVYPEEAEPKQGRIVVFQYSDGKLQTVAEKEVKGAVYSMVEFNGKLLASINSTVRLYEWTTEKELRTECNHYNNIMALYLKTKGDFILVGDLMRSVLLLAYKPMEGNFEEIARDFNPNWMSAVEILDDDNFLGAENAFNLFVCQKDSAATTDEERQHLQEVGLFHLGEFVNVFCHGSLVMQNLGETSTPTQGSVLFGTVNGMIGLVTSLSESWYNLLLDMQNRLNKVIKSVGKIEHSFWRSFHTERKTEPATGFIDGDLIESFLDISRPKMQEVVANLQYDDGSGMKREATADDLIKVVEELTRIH

IKZF2 = biological target: T3, IKZF2 (Homo sapiens, UniProt Q96SW2+Q9UKS7); test: as above; format: cell-based
T3 construct: effects of the compounds of the present disclosure on the expression of target proteins in cells; endogenous in cells; host or cells: human PBMCs (Milecell Biotechnologies)
T3 sequence (Q9UKS7 whole entry): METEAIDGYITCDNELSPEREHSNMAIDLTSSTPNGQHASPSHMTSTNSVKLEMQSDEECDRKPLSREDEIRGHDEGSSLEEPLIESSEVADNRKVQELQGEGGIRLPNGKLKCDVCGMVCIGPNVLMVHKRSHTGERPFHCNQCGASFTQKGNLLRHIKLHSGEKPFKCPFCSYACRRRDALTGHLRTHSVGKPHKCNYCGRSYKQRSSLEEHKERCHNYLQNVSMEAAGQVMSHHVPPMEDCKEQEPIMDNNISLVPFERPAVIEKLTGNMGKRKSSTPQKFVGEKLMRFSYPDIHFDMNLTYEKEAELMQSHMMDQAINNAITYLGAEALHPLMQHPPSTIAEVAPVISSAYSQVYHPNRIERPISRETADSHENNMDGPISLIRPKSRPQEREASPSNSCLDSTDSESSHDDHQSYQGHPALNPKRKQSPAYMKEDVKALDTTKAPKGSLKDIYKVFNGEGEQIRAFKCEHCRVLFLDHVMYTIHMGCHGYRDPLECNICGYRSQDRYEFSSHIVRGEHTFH
T3 sequence (Q96SW2 whole entry): as the sequence (Q96SW2 whole entry) above
T3 sequence (Q16531 whole entry partner): as the sequence (Q16531 whole entry partner) above

WEE1 = biological target: T4, WEE1 (Homo sapiens, UniProt P30291+Q96SW2); test: as above; format: cell-based
T4 construct: effects of the compounds of the present disclosure on the expression of target proteins in cells; endogenous in cells; host or cells: human PBMCs (Milecell Biotechnologies)
T4 sequence (P30291 whole entry): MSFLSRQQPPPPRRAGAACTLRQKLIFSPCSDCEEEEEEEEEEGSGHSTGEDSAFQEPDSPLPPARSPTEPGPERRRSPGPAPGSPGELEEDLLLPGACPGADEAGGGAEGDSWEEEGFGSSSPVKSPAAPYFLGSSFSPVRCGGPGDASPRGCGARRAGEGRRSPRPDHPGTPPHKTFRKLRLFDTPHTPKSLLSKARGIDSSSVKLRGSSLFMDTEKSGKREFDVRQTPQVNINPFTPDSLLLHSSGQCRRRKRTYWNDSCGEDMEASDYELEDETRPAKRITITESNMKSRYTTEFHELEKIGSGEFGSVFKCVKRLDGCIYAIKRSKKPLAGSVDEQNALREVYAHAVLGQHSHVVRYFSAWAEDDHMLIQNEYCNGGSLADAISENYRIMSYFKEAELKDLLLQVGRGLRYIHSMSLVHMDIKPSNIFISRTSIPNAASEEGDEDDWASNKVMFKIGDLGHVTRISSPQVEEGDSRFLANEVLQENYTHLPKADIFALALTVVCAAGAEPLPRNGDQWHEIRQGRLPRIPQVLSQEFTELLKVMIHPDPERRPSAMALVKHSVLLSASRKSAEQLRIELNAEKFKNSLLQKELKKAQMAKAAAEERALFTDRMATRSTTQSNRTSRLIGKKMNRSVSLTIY
T4 sequence (Q96SW2 whole entry): as the sequence (Q96SW2 whole entry) above
T4 sequence (Q16531 whole entry partner): as the sequence (Q16531 whole entry partner) above

IKZF3 = biological target: T5, IKZF3 (Homo sapiens, UniProt Q96SW2+Q9UKT9); test: as above; format: cell-based
T5 construct: effects of the compounds of the present disclosure on the expression of target proteins in cells; endogenous in cells; host or cells: human PBMCs (Milecell Biotechnologies)
T5 sequence (Q9UKT9 whole entry): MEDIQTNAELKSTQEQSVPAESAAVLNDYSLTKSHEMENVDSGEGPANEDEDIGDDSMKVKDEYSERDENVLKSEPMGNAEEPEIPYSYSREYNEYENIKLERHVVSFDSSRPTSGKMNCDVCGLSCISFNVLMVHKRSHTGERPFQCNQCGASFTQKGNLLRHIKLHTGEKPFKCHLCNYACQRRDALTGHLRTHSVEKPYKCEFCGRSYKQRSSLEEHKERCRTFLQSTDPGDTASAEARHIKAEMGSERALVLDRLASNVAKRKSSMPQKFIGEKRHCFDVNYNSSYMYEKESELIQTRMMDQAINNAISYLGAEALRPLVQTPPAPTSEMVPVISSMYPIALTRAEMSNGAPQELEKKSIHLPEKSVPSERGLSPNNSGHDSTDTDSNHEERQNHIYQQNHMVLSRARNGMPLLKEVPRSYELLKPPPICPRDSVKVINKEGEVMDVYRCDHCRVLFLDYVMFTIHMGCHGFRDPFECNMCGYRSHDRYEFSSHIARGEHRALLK
T5 sequence (Q96SW2 whole entry): as the sequence (Q96SW2 whole entry) above
T5 sequence (Q16531 whole entry partner): as the sequence (Q16531 whole entry partner) above

GSPT1 = test: as above; format: cell-based, Human
[1] = biological target: T6, human Cereblon WT GST-tagged protein (Homo sapiens, UniProt Q96SW2); test: CRBN-binding affinity, HTRF (CEREBLON BINDING kit); conditions: for inhibition at 0.5 µM: read-out: Inhibition Rate at 0.5 µM (%); for inhibition at 2 µM: read-out: Inhibition Rate at 2 µM (%); for IC50: CRBN binding, HTRF, 3 hours at room temperature, read-out: HTRF IC50
T6 construct: purchased CISBIO 64BDCRBNPEH
T6 sequence (Q96SW2 whole entry): as the sequence (Q96SW2 whole entry) above

[2] = 24 hours treatment, compounds at 50 nM and 500 nM (concentration behind the class not stated)
[3] = Western blot, 24 hours of compound treatment, compounds tested at 50 nM and 500 nM (concentration for the table not stated)

T1 sequence (Q13422 whole entry): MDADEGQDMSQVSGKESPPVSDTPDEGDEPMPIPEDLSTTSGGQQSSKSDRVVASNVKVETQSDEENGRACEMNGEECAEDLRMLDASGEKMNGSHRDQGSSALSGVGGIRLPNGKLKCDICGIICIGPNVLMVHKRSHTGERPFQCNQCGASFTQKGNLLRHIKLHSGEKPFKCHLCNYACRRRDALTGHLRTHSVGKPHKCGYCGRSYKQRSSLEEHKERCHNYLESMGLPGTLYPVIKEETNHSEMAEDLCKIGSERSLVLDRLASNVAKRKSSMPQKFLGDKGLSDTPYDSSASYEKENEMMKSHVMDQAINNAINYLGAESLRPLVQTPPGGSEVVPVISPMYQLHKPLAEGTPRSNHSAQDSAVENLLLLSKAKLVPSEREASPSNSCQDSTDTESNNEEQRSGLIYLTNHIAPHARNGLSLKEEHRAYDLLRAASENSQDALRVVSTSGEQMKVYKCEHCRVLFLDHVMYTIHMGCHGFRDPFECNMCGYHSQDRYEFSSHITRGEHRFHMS
T1 sequence (Q96SW2 whole entry): as the sequence (Q96SW2 whole entry) above
T1 sequence (Q16531 whole entry partner): as the sequence (Q16531 whole entry partner) above

Compound	IKZF 1 substrate protein remaining % (IKZF1; [2])	CK1α substrate protein remaining % (CK1α; [2])	IKZF2 substrate protein remaining % (IKZF2; [2])	Wee1 substrate protein remaining % (WEE1; [2])	IKZF3 substrate protein remaining % (IKZF3; [2])	GSPT1 substrate protein remaining % (GSPT1; [2])	inhibition at 0.5 µM [1]	inhibition at 2 µM [1]	IKZF 1 substrate protein remaining % (IKZF1; [3])	CK1α substrate protein remaining % (CK1α; [3])	IKZF2 substrate protein remaining % (IKZF2; [3])	Wee1 substrate protein remaining % (WEE1; [3])	IKZF3 substrate protein remaining % (IKZF3; [3])	GSPT1 substrate protein remaining % (GSPT1; [3])	IC50 [1]
O=C1CCC(N2Cc3cc(CN4CCN(c5nc(N6CCNCC6)c6sccc6n5)CC4)ccc3C2=S)C(=O)N1 (stereo not drawn) [GT-09365, 3-(5-((4-(4-(piperazin-1-yl)thieno[3,2-d]pyrimidin-2-yl)piperazin-1-yl)methyl)-1-thioxoisoindolin-2-yl)piperidine-2,6-dione]	A (0% ≤ substrate protein remaining % ≤ 80%)	A (0% ≤ substrate protein remaining % ≤ 80%)	B (80%< substrate protein remaining %≤ 100%)	B (80%< substrate protein remaining %≤ 100%)	B (80%< substrate protein remaining %≤ 100%)	A (0% ≤ substrate protein remaining % ≤ 80%)	60 to 80%	80 to 100%	–	–	–	–	–	–	–
O=C1CCC(N2Cc3c(CN4CCC(c5cccs5)CC4)cccc3C2=S)C(=O)N1 (stereo not drawn) [GT-08320, 3-(4-((4-(thiophen-2-yl)piperidin-1-yl)methyl)-1-thioxoisoindolin-2-yl)piperidine-2,6-dione]	B (80%< substrate protein remaining %≤ 100%)	B (80%< substrate protein remaining %≤ 100%)	B (80%< substrate protein remaining %≤ 100%)	A (0% ≤ substrate protein remaining % ≤ 80%)	A (0% ≤ substrate protein remaining % ≤ 80%)	B (80%< substrate protein remaining %≤ 100%)	40 to 53%	60 to 80%	–	–	–	–	–	–	–
Cc1cscc1N1CCN(Cc2ccc3c(c2)CN(C2CCC(=O)NC2=O)C3=S)CC1 (stereo not drawn) [GT-05113, 3-(5-((4-(4-methylthiophen-3-yl)piperazin-1-yl)methyl)-1-thioxoisoindolin-2-yl)piperidine-2,6-dione]	–	–	–	–	–	–	–	–	A (0% ≤ substrate protein remaining % ≤ 80%)	B (80%< substrate protein remaining %≤ 100%)	B (80%< substrate protein remaining %≤ 100%)	B (80%< substrate protein remaining %≤ 100%)	A (0% ≤ substrate protein remaining % ≤ 80%)	A (0% ≤ substrate protein remaining % ≤ 80%)	< 0.1 µM
O=C1CCC(N2Cc3cc(CN4CCN(c5ncccc5Cl)CC4)ccc3C2=S)C(=O)N1 (stereo not drawn) [GT-09219, 3-(5-((4-(3-chloropyridin-2-yl)piperazin-1-yl)methyl)-1-thioxoisoindolin-2-yl)piperidine-2,6-dione]	–	–	–	–	–	–	60 to 80%	80 to 100%	B (80%< substrate protein remaining %≤ 100%)	B (80%< substrate protein remaining %≤ 100%)	A (0% ≤ substrate protein remaining % ≤ 80%)	B (80%< substrate protein remaining %≤ 100%)	B (80%< substrate protein remaining %≤ 100%)	A (0% ≤ substrate protein remaining % ≤ 80%)	–
O=C1CCC(N2Cc3ccc(CN4CCN(C(c5ccccc5)c5ccccn5)CC4)cc3C2=S)C(=O)N1 (stereo not drawn) [GT-05041, 3-(6-((4-(phenyl(pyridin-2-yl)methyl)piperazin-1-yl)methyl)-1-thioxoisoindolin-2-yl)piperidine-2,6-dione]	–	–	–	–	–	–	–	–	A (0% ≤ substrate protein remaining % ≤ 80%)	B (80%< substrate protein remaining %≤ 100%)	B (80%< substrate protein remaining %≤ 100%)	B (80%< substrate protein remaining %≤ 100%)	B (80%< substrate protein remaining %≤ 100%)	A (0% ≤ substrate protein remaining % ≤ 80%)	1.5 to 1.9 µM
CC1(C)CC(c2ccc(Cl)cc2)=C(CN2CCN(Cc3ccc4c(c3)CN(C3CCC(=O)NC3=O)C4=S)CC2)CO1 (stereo not drawn) [GT-08167, 3-(5-((4-((4-(4-chlorophenyl)-6,6-dimethyl-5,6-dihydro-2H-pyran-3-yl)methyl)piperazin-1-yl)methyl)-1-thioxoisoindolin-2-yl)piperidine-2,6-dione]	B (80%< substrate protein remaining %≤ 100%)	B (80%< substrate protein remaining %≤ 100%)	A (0% ≤ substrate protein remaining % ≤ 80%)	A (0% ≤ substrate protein remaining % ≤ 80%)	A (0% ≤ substrate protein remaining % ≤ 80%)	A (0% ≤ substrate protein remaining % ≤ 80%)	40 to 53%	80 to 100%	–	–	–	–	–	–	–
O=C1CCC(N2Cc3c(CN4CCN(c5nc(N6CCOCC6)nc6ccsc56)CC4)cccc3C2=S)C(=O)N1 (stereo not drawn) [GT-09032, 3-(4-((4-(2-morpholinothieno[3,2-d]pyrimidin-4-yl)piperazin-1-yl)methyl)-1-thioxoisoindolin-2-yl)piperidine-2,6-dione]	B (80%< substrate protein remaining %≤ 100%)	B (80%< substrate protein remaining %≤ 100%)	B (80%< substrate protein remaining %≤ 100%)	A (0% ≤ substrate protein remaining % ≤ 80%)	B (80%< substrate protein remaining %≤ 100%)	B (80%< substrate protein remaining %≤ 100%)	40 to 53%	80 to 100%	–	–	–	–	–	–	–
Cc1sc2ncnc(C3=CCN(Cc4cccc5c4CN(C4CCC(=O)NC4=O)C5=S)CC3)c2c1C (stereo not drawn) [GT-08955, 3-(4-((4-(5,6-dimethylthieno[2,3-d]pyrimidin-4-yl)-3,6-dihydropyridin-1(2H)-yl)methyl)-1-thioxoisoindolin-2-yl)piperidine-2,6-dione]	B (80%< substrate protein remaining %≤ 100%)	B (80%< substrate protein remaining %≤ 100%)	B (80%< substrate protein remaining %≤ 100%)	A (0% ≤ substrate protein remaining % ≤ 80%)	B (80%< substrate protein remaining %≤ 100%)	B (80%< substrate protein remaining %≤ 100%)	40 to 53%	60 to 80%	–	–	–	–	–	–	–
O=C1CCC(N2Cc3c(CN4CCC(c5ccsc5)CC4)cccc3C2=S)C(=O)N1 (stereo not drawn) [GT-08315, 3-(4-((4-(thiophen-3-yl)piperidin-1-yl)methyl)-1-thioxoisoindolin-2-yl)piperidine-2,6-dione]	B (80%< substrate protein remaining %≤ 100%)	B (80%< substrate protein remaining %≤ 100%)	B (80%< substrate protein remaining %≤ 100%)	A (0% ≤ substrate protein remaining % ≤ 80%)	B (80%< substrate protein remaining %≤ 100%)	B (80%< substrate protein remaining %≤ 100%)	40 to 53%	60 to 80%	–	–	–	–	–	–	–
O=C1CCC(N2Cc3c(CN4CCN(c5ccncc5)CC4)cccc3C2=S)C(=O)N1 (stereo not drawn) [GT-08726, 3-(4-((4-(pyridin-4-yl)piperazin-1-yl)methyl)-1-thioxoisoindolin-2-yl)piperidine-2,6-dione]	–	–	–	–	–	–	60 to 80%	80 to 100%	B (80%< substrate protein remaining %≤ 100%)	B (80%< substrate protein remaining %≤ 100%)	A (0% ≤ substrate protein remaining % ≤ 80%)	A (0% ≤ substrate protein remaining % ≤ 80%)	A (0% ≤ substrate protein remaining % ≤ 80%)	A (0% ≤ substrate protein remaining % ≤ 80%)	–
